The nature of this data set: recombinant UMI read abundance after kanamycin selection (control-corrected) (log10(CPM+1)); higher = more efficient recombination; extreme values may be limits of the assay; sequences stand for … in AGTGCAGAGAAAATCGGCCAGTTTTCTCTGCCTGCAGTCCGCATGCCGTGGGACCCCTTGGGTTCTAACCTGTTGCCTAGATTTATGCAGCGGACTGCCTTTCTCCCAAAGTGATAAACCGG…AGGTTGGTTTCACT; site = the 11-nt donor. An outline of the steps: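 Values are reported as log10(CPM+1), obtained by converting sequencing counts to CPM, averaging replicates and scaling by control-derived factors. The counts came from recombinant UMIs amplified by PCR across the donor–target junction. These UMIs came from a pooled Escherichia coli screen of donor and donor-binding-loop pairs for the IS621 bridge recombinase, plated with IPTG (0.07 mM) plus kanamycin or left unselected, in two replicates each.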
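Also: IS621 bridge recombinase in Escherichia coli cells against a fixed T5 target plasmid.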

As to “GAGCTCACATGGACCGGTTTTCCCGGTAATCCGTATTTGAG (site GAGCTCACTGT)”, the “recombinant UMI read abundance (log10)” value is 0.
Then “GAGCTCACATGGACCGGTTTTCCCGGTAATCCGTATTTGAG (site GAGCTCACTTT)”, with 0.00749; and “GAGCTCCCATGGACCGGTTTTCCCGGTAATCCGTATTTGAT (site GAGCTCACTAT)”, with 0.00938; and “GAGCTCCCATGGACCGGTTTTCCCGGTAATCCGTATTTGAT (site GAGCTCCCTAT)”, with 1.07.
For “GAGCTCCCATGGACCGGTTTTCCCGGTAATCCGTATTTGAT (site GAGCTCGCTAT)”, the “recombinant UMI read abundance (log10)” value turned out to be 0.
Then “GAGCTCCCATGGACCGGTTTTCCCGGTAATCCGTATTTGAT (site GAGCTCTCTAT)”, with 2.
Consider “GAGCTCTCATGGACCGGTTTTCCCGGTAATCCGTATTTGAT (site GAGCTCACTAT)”, for which the “recombinant UMI read abundance (log10)” value turned out to be 0.0184.
In the case of “GAGCTCTCATGGACCGGTTTTCCCGGTAATCCGTATTTGAT (site GAGCTCCCTAT)” it was 1.06.
Then “GAGCTCTCATGGACCGGTTTTCCCGGTAATCCGTATTTGAT (site GAGCTCGCTAT)”, with 0.0051; and “GAGCTCTCATGGACCGGTTTTCCCGGTAATCCGTATTTGAT (site GAGCTCTCTAT)”, with 2.58.
Then “GAGCTTCCATGGACCGGTTTTCCCGGTAATCCGTATTTGTC (site GAGCTTCCTGA)”, with 0.576; and “GAGGAATCATGGACCGGTTTTCCCGGTAATCCGTATTTGCG (site AAGGAATCTCG)”, with 2.23.
Consider “GAGGAATCATGGACCGGTTTTCCCGGTAATCCGTATTTGCG (site CAGGAATCTCG)”, for which the “recombinant UMI read abundance (log10)” value came to 2.04.
Then “GAGGAATCATGGACCGGTTTTCCCGGTAATCCGTATTTGCG (site GAGGAATCTCG)”, with 2.47.
Then “GAGGAATCATGGACCGGTTTTCCCGGTAATCCGTATTTGCG (site TAGGAATCTCG)”, with 2.25; and “GAGGACGCATGGACCGGTTTTCCCGGTAATCCGTATTTGAG (site GAGGACGCTCT)”, with 1.9; and “GAGGAGACATGGACCGGTTTTCCCGGTAATCCGTATTTGCC (site GAGGAGACTGG)”, with 1.22.
Then “GAGGCACCATGGACCGGTTTTCCCGGTAATCCGTATTTGCA (site GAGGCACCTTG)”, with 0.344.
On to “GAGGCACCATGGACCGGTTTTCCCGGTAATCCGTATTTGCA (site GCGGCACCTTG)”, for which the “recombinant UMI read abundance (log10)” value worked out at 0.
In the case of “GAGGCACCATGGACCGGTTTTCCCGGTAATCCGTATTTGCA (site GGGGCACCTTG)” it was 0; in that of “GAGGCACCATGGACCGGTTTTCCCGGTAATCCGTATTTGCA (site GTGGCACCTTG)”, 0; in that of “GAGGCCTCATGGACCGGTTTTCCCGGTAATCCGTATTTGAG (site GAGGCCTCTCT)”, 1.42.
Then “GAGGTGGCATGGACCGGTTTTCCCGGTAATCCGTATTTGGC (site GAGGTGGCTGC)”, with 2.13.
On to “GAGTACGCATGGACCGGTTTTCCCGGTAATCCGTATTTGAT (site GAGTACGCTAT)”, for which the “recombinant UMI read abundance (log10)” value is 1.99.
Then “GAGTAGTCATGGACCGGTTTTCCCGGTAATCCGTATTTGGA (site GAGTAGTCTTC)”, with 2.7; and “GAGTCAGCATGGACCGGTTTTCCCGGTAATCCGTATTTGCC (site GAGTCAGCTGG)”, with 1.07; and “GAGTTCACATGGACCGGTTTTCCCGGTAATCCGTATTTGAT (site GAGATCACTAT)”, with 0.00366.
In the case of “GAGTTCACATGGACCGGTTTTCCCGGTAATCCGTATTTGAT (site GAGCTCACTAT)” it was 0.905; in that of “GAGTTCACATGGACCGGTTTTCCCGGTAATCCGTATTTGAT (site GAGGTCACTAT)”, 0.
In the case of “GAGTTCACATGGACCGGTTTTCCCGGTAATCCGTATTTGAT (site GAGTTCACTAT)” it was 1.69; in that of “GAGTTGTCATGGACCGGTTTTCCCGGTAATCCGTATTTGTT (site GAGTTGTCTAA)”, 2.01.
“GATAAACCATGGACCGGTTTTCCCGGTAATCCGTATTTGGT (site GAAAAACCTAC)”: the “recombinant UMI read abundance (log10)” value turned out to be 0.
In the case of “GATAAACCATGGACCGGTTTTCCCGGTAATCCGTATTTGGT (site GACAAACCTAC)” it was 0; in that of “GATAAACCATGGACCGGTTTTCCCGGTAATCCGTATTTGGT (site GAGAAACCTAC)”, 0; in that of “GATAAACCATGGACCGGTTTTCCCGGTAATCCGTATTTGGT (site GATAAACCTAC)”, 0.
In the case of “GATAAAGCATGGACCGGTTTTCCCGGTAATCCGTATTTGGG (site GATAAAGCTCC)” it was 0.172.
In the case of “GATACCACATGGACCGGTTTTCCCGGTAATCCGTATTTGCC (site GATACCACTGG)” it was 1.33; in that of “GATACTGCATGGACCGGTTTTCCCGGTAATCCGTATTTGCC (site GATACTGCTGG)”, 0.895; in that of “GATACTGCATGGACCGGTTTTCCCGGTAATCCGTATTTGCC (site GCTACTGCTGG)”, 0.748.
In the case of “GATACTGCATGGACCGGTTTTCCCGGTAATCCGTATTTGCC (site GGTACTGCTGG)”, the “recombinant UMI read abundance (log10)” value turned out to be 1.73.
Then “GATACTGCATGGACCGGTTTTCCCGGTAATCCGTATTTGCC (site GTTACTGCTGG)”, with 1.4; and “GATAGACCATGGACCGGTTTTCCCGGTAATCCGTATTTGGC (site GATAGACCTGC)”, with 0; and “GATAGCACATGGACCGGTTTTCCCGGTAATCCGTATTTGCG (site GATAGCACTCG)”, with 0.578.
Then “GATAGGACATGGACCGGTTTTCCCGGTAATCCGTATTTGAC (site GATAGGACTGT)”, with 2.34; and “GATAGGACATGGACCGGTTTTCCCGGTAATCCGTATTTGAC (site GATCGGACTGT)”, with 0.114.
In the case of “GATAGGACATGGACCGGTTTTCCCGGTAATCCGTATTTGAC (site GATGGGACTGT)” it was 0.531; in that of “GATAGGACATGGACCGGTTTTCCCGGTAATCCGTATTTGAC (site GATTGGACTGT)”, 0.386; in that of “GATAGGACATGGACCGGTTTTCCCGGTAATCCGTATTTGTT (site GATAGGACTAA)”, 1.43.
On to “GATCATACATGGACCGGTTTTCCCGGTAATCCGTATTTGCT (site GATCATACTAG)”, for which the “recombinant UMI read abundance (log10)” value worked out at 1.82.
Then “GATCCCGCATGGACCGGTTTTCCCGGTAATCCGTATTTGTC (site GATCCCGCTGA)”, with 0.846; and “GATCCGGCATGGACCGGTTTTCCCGGTAATCCGTATTTGAT (site GATCCGGCTAT)”, with 0.0999.
In the case of “GATGATCCATGGACCGGTTTTCCCGGTAATCCGTATTTGCT (site GATAATCCTAG)” it was 0; in that of “GATGATCCATGGACCGGTTTTCCCGGTAATCCGTATTTGCT (site GATCATCCTAG)”, 0; in that of “GATGATCCATGGACCGGTTTTCCCGGTAATCCGTATTTGCT (site GATGATCCTAG)”, 0.
Turning to “GATGATCCATGGACCGGTTTTCCCGGTAATCCGTATTTGCT (site GATTATCCTAG)”, the “recombinant UMI read abundance (log10)” value was determined as 0.
Then “GATGATTCATGGACCGGTTTTCCCGGTAATCCGTATTTGTT (site GAAGATTCTAA)”, with 0.433.
Take “GATGATTCATGGACCGGTTTTCCCGGTAATCCGTATTTGTT (site GACGATTCTAA)”: the “recombinant UMI read abundance (log10)” value is 0.
Then “GATGATTCATGGACCGGTTTTCCCGGTAATCCGTATTTGTT (site GAGGATTCTAA)”, with 0.
In the case of “GATGATTCATGGACCGGTTTTCCCGGTAATCCGTATTTGTT (site GATGATTCTAA)” it was 1.79.
Then “GATGCCTCATGGACCGGTTTTCCCGGTAATCCGTATTTGTT (site GATGCCTCTAA)”, with 0.895.
“GATGGCTCATGGACCGGTTTTCCCGGTAATCCGTATTTGCC (site GATGGCTCTGG)”: the “recombinant UMI read abundance (log10)” value was 2.65.
With “GATGGTTCATGGACCGGTTTTCCCGGTAATCCGTATTTGAT (site GATGGTTCTAT)”, the “recombinant UMI read abundance (log10)” value is 1.58.
In the case of “GATGTGTCATGGACCGGTTTTCCCGGTAATCCGTATTTGAC (site AATGTGTCTGT)” it was 1.67.
Then “GATGTGTCATGGACCGGTTTTCCCGGTAATCCGTATTTGAC (site CATGTGTCTGT)”, with 0.736; and “GATGTGTCATGGACCGGTTTTCCCGGTAATCCGTATTTGAC (site GATGTGTCTGT)”, with 2.61.
In the case of “GATGTGTCATGGACCGGTTTTCCCGGTAATCCGTATTTGAC (site TATGTGTCTGT)” it was 0.677; in that of “GATTACCCATGGACCGGTTTTCCCGGTAATCCGTATTTGAG (site GATTACCCTCT)”, 0.03.
For “GATTACCCATGGACCGGTTTTCCCGGTAATCCGTATTTGCT (site GATTAACCTAG)”, the “recombinant UMI read abundance (log10)” value amounted to 0.

Values taken from the supplement of paper PMC11208160.
